Earlier results in patent US20180117080A1, “COMPOSITIONS AND METHODS FOR TREATING SKIN CONDITIONS” (priority 2015, published 2018).

Structure (SMILES): [Cl-].[K+] [KCl, Potassium Chloride]
- g/L Water Solubility 20c: 344 g/L
